# Data taken from patent EP0062319A1, “3-Methyl-1-(2-(3-naphthyloxy)-ethyl)-2-pyrazolin-5-one for the treatment of the metastasis and growth of tumour cells” (BAYER AG, priority 1981, dated 1982).
# Tests used:
# [1] = system: B-16a-amelanotischen Melanom-Zellen; experiment: Metastasis of tail-vein injected B-16a melanoma cells (lung tumour colonies) in mice; type: in vivo, C57BL/6J Mäuse; conditions: 5 x 10^4 cells i.v., mean ± SEM, n = 6
# Description: (§1) Wie bereits weiter oben festgestellt wurde, ist die Metastase […], die durch eine Reihe komplizierter Vorgänge dargestellt wird. Gegenwärtig finden zwei "Modell"-Systeme für die Untersuchung der in vivo-Metastase verbreitete Anwendung. Das erste Modellsystem umfaßt die subkutane Injektion der Tumorzellen in das Tier. Die subkutane Injektion der Tumorzellen und anschließende Entwicklung eines Primärtumors, gefolgt von spontaner Metastase, wird als "volle" Metastase betrachtet. Ein anderes Modellsystem umfaßt die Injektion der Tumorzellen durch die Schwanzvene. In Anbetracht der Komplexität der Metastase gilt die Schwanzvenen-Injektion als künstliches und nur partielles Modellsystem, da es nur die Vorgänge während des letzteren Teils der Metastase wiedergibt. Das Schwanzvenen-Modellsystem gilt jedoch auch als außerordentlich günstig im Hinblick auf eine Standardisierung der Versuchsbedingungen [vgl."Methods in Cancer Research", Kapitel VII, Academic Press, Inc., 1978].
# (§2) Als Kontrolltiere wurden (unbehandelte) C57B1/6J-Mäuse nach folgender Arbeitsweise auf volle Metastase untersucht. Zellsuspensionen der B-16 - und 3LL-Karzinom-Zellen, die wie oben unter A und B beschrieben erhalten worden waren, wurden subkutan in die rechte Achselhöhlenregion der männlichen C57BL/6J-Mäuse injiziert (0,66 mm- = 26 gauge -Nadel; 0,2 ml). Injiziert wurden verschiedene Mengen der Zellsuspensionen im Bereich von 1 x 10^5 bis 1 x 10^6 Zellen. Versuche zur partiellen Metastase wurden in der Weise durchgeführt, daß Tumorzellen über die Schwanzvene in die (unbehandelten) Kontroll-Mäuse injiziert wurden. Die Tiere wurden unter identischen Bedingungen der Temperatur, Lichteinwirkungsdauer, Ernährung etc. gehalten. Nach einem Beobachtungszeitraum von 17 bis 30 Tagen wurden die für die volle Metastase und für die partielle Metastase verwendeten Tiere getötet, und die Lungen, Leber, Nieren, Milz und Gehirn-Gewebe wurde entnommen.
# (§3) Das entnommene Gewebe wurde in Bouin-Lösung fixiert.
# (§4) Die Zahl der metastatischen Knötchen in jedem Organ wurde mit Hilfe eines Bausch-und-Lomb Stereo-Zoom-Mikroskops bestimmt. Die Untersuchung der Kontroll- Mäuse auf metastatische Knötchen ergab bei 100 % der Tiere positive Befunde in bezug auf metastatische Lungentumoren; die Inkubationszeit für die Erzeugung solcher Metastasen betrug für die 3LL-Tumorzellen 17 bis 21 Tage und für die B-16 a -Tumorzellen 23 bis 30 Tage. In Leber, Nieren, Milz oder Gehirn-Gewebe wurden keine sichtbaren Knötchen beobachtet.
# 3 mg 3-Methyl-1-[2-(2-naphthyloxy)-ethyl]-2-pyrazolin-5-on wurden in 0,6 ml absolutem Ethylalkohol suspendiert. Das suspendierte Pyrazolon wurde durch Einstellen des pH auf 9,5 mit NaOH gelöst. […]
# [2] = system: B-16a-amelanotischem Melanom; experiment: Spontaneous (full) metastasis of subcutaneously injected B-16a melanoma (lung tumour colonies) in mice; type: in vivo, C57BL/6J Mäuse; conditions: for Lungen-Tumor-Kolonien B-16a-Zellen: 1,8 x 10^5 cells s.c., killed day 25, mean ± SEM; for Lungen-Tumor-Kolonien B-16a-Zellen (fraction in brackets): bracketed fraction
# Description: as §1, §2, §3, §4
# Die Wirkung der Verabreichung der Pyrazolon-Verbindung über einen längeren Zeitraum hinweg auf die Zahl der metastatischen Lungen-Kolonien des B-16 a und des Lewis-Lungen-Karzinoms wurde wie nachstehend beschrieben bestimmt.
# 3 mg 3-Methyl-1-[2-(2-naphthyloxy)-ethyl]-2-pyrazolin-5-on wurden in 0,6 ml Ethylalkohol gelöst, und die Lösung wurde mit konzentrierter Natronlauge auf pH 9,5 eingestellt.
# Syngeneischen C57BL/6J Wirts-Mäusen wurde eine Suspension von 1,8 x 10^5 B-16 a -Zellen subkutan injiziert, die wie vorstehend beschrieben hergestellt wurde. Einer anderen Reihe syngeneischer C57BL/6J Wirts-Mäuse wurde eine Suspension von 1 x 10^5 Lewis-Lungen-Karzinom-Zellen, erhalten wie vorstehend beschrieben, subkutan injiziert. […] Die Kontroll-Mäuse und die behandelten Mäuse wurden unter identischen Bedingungen der Temperatur, Lichteinwirkungsdauer, Ernährung etc. gehalten. Die Mäuse, die die B-16 -Tumorzellen injiziert erhalten hatten wurden 25 Tage nach der Injektion der Tumorzellen getötet; die Mäuse, denen die Lewis-Lungen-Karzinom-Zellen injiziert worden waren, wurden 21 Tage nach der Injektion der Tumorzellen getötet.
# B-16 -Melanom-Zellen = experiment: Tumour cell proliferation and viability in tissue culture; type: cell-based, Mäuse; conditions: 0,1 to 25 µg/ml; cell counts after 8 days; Fig. 2
# Description: Die antineoplastische Wirksamkeit wurde außerdem durch direkte Messung des Wachstums der Tumorzellen in vitro in Gewebekulturen bestimmt. Diese Methode bedient sich des "Plating" oder Aufimpfens einer bekannten Anzahl von Tumorzellen auf ein Wachstumsmedium und der Bestimmung der Wirkung der Anwesenheit der zu prüfenden Verbindung auf die Tumorzellen-Proliferation. […] wurde die antineoplastische Aktivität in vivo in der Weise bestimmt, daß den Mäusen subkutan Tumorzellen injiziert wurden und das Auftreten von […] sowie […] in unbehandelten Kontrolltieren und in mit der Pyrazolon-Verbindung behandelten […] worden […] von 3 x 10^4 Zellen pro Platte überimpft. Die Zellen wurden in einem Medium aus MEM, Hank's Basic Salt Solution und 10 % […] bei Microbiological Associates, Walkersville, Maryland, kultiviert. Nach 24-stündiger Inkubation bei 37°C wurden die ZellZählungen durch […] Medium wurde […] und durch das oben bezeichnete.Medium und Pyrazolon in einem von 0,1 bis 25 μg/ml […]. Die Kontrollgruppen erhielten nur einen Austausch des Mediums. Danach wurde das Pyrazolon enthaltende Medium jeden zweiten Tag ersetzt. Nach 8 Tagen wurden Zellzählungen wie oben beschrieben durchgeführt, und die Lebensfähigkeit der Zellen wurde nach der weiter oben genannten Vitalfarbstoff-Ausschlußmethode (vital dye exclusive method) bestimmt. Die Daten sind dargestellt als Mittelwert der Zahl […] aus […]. […]
structure (smiles),measurement,setting,value
CC1=NN(CCOc2ccc3ccccc3c2)C(=O)C1 [3-Methyl-1-[2-(2-naphthyloxy)-ethyl]-2-pyrazolin-5-on],Lungen-Tumor-Kolonien,"[1]; 0.02 mg/mouse s.c. daily for 3 days before tumour cell injection, lungs 14 days later",19.3 ± 7.5
same,Lungen-Tumor-Kolonien,"[1]; 0.08 mg, second line of the table (presumably injected 1 h before the tumour cells)",65 ± 36
same,Lungen-Tumor-Kolonien,"[1]; 0.08 mg/mouse s.c. daily for 3 days before tumour cell injection, lungs 14 days later",2.7 ± 1.3
same,Lungen-Tumor-Kolonien B-16a-Zellen,"[2]; 0.01 mg daily s.c., colonies on bilateral lung surface",1.7 ± 0.7
same,Lungen-Tumor-Kolonien B-16a-Zellen (fraction in brackets),[2]; 0.01 mg daily s.c.,7/12
same,Lungen-Tumor-Kolonien B-16a-Zellen,[2]; 0.02 mg daily s.c.,2.5 ± 0.9
same,Lungen-Tumor-Kolonien B-16a-Zellen (fraction in brackets),[2]; 0.02 mg daily s.c.,7/12
same,Lungen-Tumor-Kolonien B-16a-Zellen,[2]; 0.04 mg daily s.c.,3.1 ± 0.8
same,Lungen-Tumor-Kolonien B-16a-Zellen (fraction in brackets),[2]; 0.04 mg daily s.c.,8/12
same,Lungen-Tumor-Kolonien B-16a-Zellen,[2]; 0.08 mg daily s.c.,1.4 ± 0.8
same,Lungen-Tumor-Kolonien B-16a-Zellen (fraction in brackets),[2]; 0.08 mg daily s.c.,5/12
same,Tumorzellen-Proliferation,B-16 -Melanom-Zellen,die Tumorzellen-Proliferation über den gleichen Dosierungsbereich hemmte
